Data on one compound can be found in US12319652B2, “Salts and solid forms of (R)-1-(5-methoxy-1H-indol-1-yl)-N,N-dimethylpropan-2-amine” (priority 2021, dated 2025).

The data set is classed as physicochemical. On the procedure: Both samples were maintained at 75% RH at 40° C. and monitored by HPLC at time points t=1 h, 3 h, 24 h, 48 h, 7 d, 2 w, 3 w, 4 w and 5 w.
Under the conditions evaluated during this study, XRPD analysis could not be performed as compound 1 Fumarate turned to an oily residue within 3 h under both conditions.
[…] Both samples were maintained under equilibrium humidity of 75% RH at 40° C. and monitored, initially at hourly and then weekly time points.

Turning to `COc1ccc2c(ccn2C[C@@H](C)[NH+](C)C)c1.O=C(O)/C=C/C(=O)O` [Compound 1 fumarate, (R)-1-(5-methoxy-1H-indol-1-yl)-N,N-dimethylpropan-2-amine fumarate], the “Decrease of chemical purity” value (75% RH/40° C., 5 week time point) is recorded as “approximately 2 % area”. The “Stability of the amorphous phase” value (75% RH/40° C., 5 weeks) is “good stability”. In addition, where the note is “75% RH/40° C., both conditions (open vial and double bagged)”, the “Time to turn to an oily residue” value was ≤ 3 h. Further, the “Preliminary stability evaluation (hydrate formation or degradation)” value (several weeks at 40° C./75% RH) is on record as “no evidence for hydrate formation or degradation”.
